Assay results as given in PubChem BioAssay AID328 (DTP/NCI, 2004).
Values joined by “and” are separate entries in the source; they are usually repeats but may differ in a detail not shown here. Identical values can stand only once. Inconclusive results and toxic doses are left out.

Tested on: BDF1 mice, P388 leukemia ip, median survival T/C
Assay: NCI In Vivo Anticancer Drug Screen. Data for tumor model P388 Leukemia (intraperitoneal) in B6D2F1 (BDF1) mice
Conditions: endpoint: median survival time, higher = longer survival
In short: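 Read-out is survival of treated animals expressed relative to the vehicle group, as a T/C ratio.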

[1] = dose: 50.0 mg/kg/injection, schedule: Q01DX009 (ip), vehicle: saline with Tween-80
[2] = dose: 100.0 mg/kg/injection, schedule: Q01DX009 (ip), vehicle: saline with Tween-80
[3] = dose: 100.0 mg/kg/injection, schedule: Q04DX003 (ip), vehicle: saline with Tween-80
[4] = dose: 200.0 mg/kg/injection, schedule: Q04DX003 (ip), vehicle: saline with Tween-80
[5] = dose: 400.0 mg/kg/injection, schedule: Q04DX003 (ip), vehicle: saline with Tween-80
[6] = dose: 25.0 mg/kg/injection, schedule: Q01DX009 (ip), vehicle: saline with Tween-80

COc1cc([N+](=O)[O-])c(C)cc1Nc1ccc(OC)c(OC)c1
T/C [1]: 100 % of control
T/C [2]: 103 % of control and 106 % of control
T/C [3]: 100 % of control
T/C (dose: 200.0 mg/kg/injection, schedule: Q01DX009 (ip), vehicle: saline with Tween-80): 87 % of control and 94 % of control
T/C [4]: 100 % of control
T/C (dose: 400.0 mg/kg/injection, schedule: Q01DX009 (ip), vehicle: saline with Tween-80): 97 % of control and 100 % of control
T/C [5]: 90 % of control

COc1cc(/C=N/NC(=O)COCC(=O)N/N=C/c2ccc(O)cc2OC)ccc1O
T/C (dose: 200.0 mg/kg/injection, schedule: Q01DX005 (ip), vehicle: saline with Tween-80): 96 % of control

CCCCCOc1cc(C(C)=O)cc(OC)c1OC(=O)c1cc([N+](=O)[O-])cc([N+](=O)[O-])c1
T/C (dose: 100.0 mg/kg/injection, schedule: Q01DX001 (ip), vehicle: saline with Tween-80): 100 % of control
T/C (dose: 200.0 mg/kg/injection, schedule: Q01DX001 (ip), vehicle: saline with Tween-80): 90 % of control
T/C (dose: 400.0 mg/kg/injection, schedule: Q01DX001 (ip), vehicle: saline with Tween-80): 90 % of control

CC(=O)OC1C(=O)C(O)C(C)OC1O[C@@H]1C[C@@]2(C)[C@@H]3CC=C4[C@@H](C[C@H](O)C(=O)C4(C)C)[C@]3(C)C(=O)C[C@]2(C)[C@H]1[C@@](C)(O)C(=O)/C=C/C(C)(C)O (some centres undefined)
T/C (dose: 0.13 mg/kg/injection, schedule: Q01DX009 (ip), vehicle: Klucel (hydroxypropylcellulose) (HPC)): 104 % of control
T/C (dose: 0.16 mg/kg/injection, schedule: Q01DX010 (ip), vehicle: saline): 107 % of control and 110 % of control
T/C (dose: 0.25 mg/kg/injection, schedule: Q01DX009 (ip), vehicle: Klucel (hydroxypropylcellulose) (HPC)): 109 % of control
T/C (dose: 0.25 mg/kg/injection, schedule: Q01DX010 (ip), vehicle: carboxymethylcellulose (CMC)): 90 % of control
T/C (dose: 0.33 mg/kg/injection, schedule: Q01DX010 (ip), vehicle: saline): 109 % of control and 110 % of control
T/C (dose: 0.5 mg/kg/injection, schedule: Q01DX009 (ip), vehicle: Klucel (hydroxypropylcellulose) (HPC)): 118 % of control
T/C (dose: 0.5 mg/kg/injection, schedule: Q01DX010 (ip), vehicle: carboxymethylcellulose (CMC)): 87 % of control and 90 % of control
T/C (dose: 0.67 mg/kg/injection, schedule: Q01DX010 (ip), vehicle: saline): 108 % of control and 110 % of control
T/C (dose: 1.0 mg/kg/injection, schedule: Q01DX009 (ip), vehicle: Klucel (hydroxypropylcellulose) (HPC)): 113 % of control
T/C (dose: 1.25 mg/kg/injection, schedule: Q01DX010 (ip), vehicle: saline): 109 % of control and 110 % of control
T/C (dose: 1.4 mg/kg/injection, schedule: Q01DX009 (ip), vehicle: saline): 150 % of control
T/C (dose: 2.0 mg/kg/injection, schedule: Q01DX009 (ip), vehicle: Klucel (hydroxypropylcellulose) (HPC)): 90 % of control
T/C (dose: 2.5 mg/kg/injection, schedule: Q01DX010 (ip), vehicle: saline): 110 % of control and 111 % of control
T/C (dose: 2.6 mg/kg/injection, schedule: Q01DX009 (ip), vehicle: saline): 120 % of control

Nc1nc(CNc2ccc(Cl)cc2)nc(Nc2ccccc2)n1
T/C (dose: 100.0 mg/kg/injection, schedule: Q04DX003 (ip), vehicle: saline): 105 % of control
T/C (dose: 200.0 mg/kg/injection, schedule: Q04DX003 (ip), vehicle: saline): 100 % of control
T/C (dose: 400.0 mg/kg/injection, schedule: Q04DX003 (ip), vehicle: saline): 100 % of control

CC(C)/[N+]([O-])=C/C=C/c1ccccc1
T/C (dose: 100.0 mg/kg/injection, schedule: Q04DX003 (ip), vehicle: Klucel (hydroxypropylcellulose) (HPC)): 100 % of control
T/C (dose: 200.0 mg/kg/injection, schedule: Q04DX003 (ip), vehicle: Klucel (hydroxypropylcellulose) (HPC)): 100 % of control
T/C (dose: 400.0 mg/kg/injection, schedule: Q04DX003 (ip), vehicle: Klucel (hydroxypropylcellulose) (HPC)): 113 % of control

COc1cc(N=Nc2ccc(O)c3ncccc23)c(OC)cc1N=Nc1ccc([N+](=O)[O-])cc1
T/C (dose: 50.0 mg/kg/injection, schedule: Q01DX005 (ip), vehicle: saline with Tween-80): 101 % of control
T/C (dose: 100.0 mg/kg/injection, schedule: Q01DX005 (ip), vehicle: saline with Tween-80): 111 % of control

C1CC[N-]CC1.C1CC[N-]CC1.C1CC[N-]CC1.[Cl][Cr]([Cl])[Cl]
T/C (dose: 50.0 mg/kg/injection, schedule: Q01DX009 (ip), vehicle: Klucel (hydroxypropylcellulose) (HPC)): 90 % of control
T/C (dose: 100.0 mg/kg/injection, schedule: Q01DX009 (ip), vehicle: Klucel (hydroxypropylcellulose) (HPC)): 100 % of control

O=C/C=C/c1cccc([N+](=O)[O-])c1
T/C [6]: 110 % of control
T/C [1]: 115 % of control
T/C [2]: 119 % of control

CN(C)c1ccc(/C=N/Nc2ncnc3nc[nH]c23)cc1
T/C [3]: 103 % of control
T/C [4]: 96 % of control
T/C [5]: 103 % of control

C[CH2][Sn]([c]1ccccc1)([c]1ccccc1)[c]1ccccc1
T/C (dose: 12.5 mg/kg/injection, schedule: Q01DX009 (ip), vehicle: saline with Tween-80): 104 % of control
T/C [6]: 109 % of control
T/C [1]: 104 % of control
